In patent publication US4122034A, “Antimicrobial compositions” (Schering Corporation, priority 1975, dated 1978):
≈ marks a conversion by molar mass, not a printed value.

Experiments:
Format in all cases: cell-based
[1] = system: Bacteroides corrodens; experiment: In vitro activity against anaerobes in fluid Thioglycollate medium (Table II); details: Eikenella corrodens
Description: (§1) All the tests were carried out and (when necessary) scored under standard conditions. "MIC" means "minimum inhibitory concentration."
(§2) In vitro activity of 2-aminoalkyl-3-phenylindoles of the formula I
(§3) against anaerobes in fluid Thioglycollate medium

[2] = system: Bacteroides fragilis; experiment: as above
Description: as §1, §2, §3

[3] = system: Clostridium septicum; experiment: as above
Description: as §1, §2, §3

[4] = system: Clostridium novyi; experiment: as above
Description: as §1, §2, §3

[5] = system: Peptostreptococcus; experiment: as above
Description: as §1, §2, §3

[6] = system: Clostridium histolyticum; experiment: as above; details: Hathewaya histolytica
Description: as §1, §2, §3

[7] = system: Salmonella; experiment: In vitro antibacterial activity, dilution in Mueller Hinton Agar (Table I)
Description: as §1
(§4) In vitro Antibacterial Activity of 2-aminoalkyl-3-phenyl-
(§5) indoles of the formula I. Dilution in Mueller Hinton Agar pH 7.4

[8] = system: Proteus rettgeri; experiment: as above; details: Providencia rettgeri; 'Proteus rettgeri mirabilis' [sic]; Mueller Hinton Agar pH 7.4
Description: as §1, §4, §5

[9] = system: Proteus mirabilis; experiment: as above; details: Mueller Hinton Agar pH 7.4
Description: as §1, §4, §5

[10] = system: Pseudomonas acruginosa; experiment: as above
Description: as §1, §4, §5

[11] = system: Klebsiella; experiment: as above
Description: as §1, §4, §5

[12] = system: Streptococcus pyogenes; experiment: as above
Description: as §1, §4, §5

[13] = system: Proteus morganii; experiment: as above; details: Morganella morganii; strain Valz; Mueller Hinton Agar pH 7.4
Description: as §1, §4, §5

[14] = system: Proteus vulgaris; experiment: as above; details: strain Napol, Mueller Hinton Agar pH 7.4
Description: as §1, §4, §5

[15] = system: Staphylococcus aureus; experiment: as above; details: Mueller Hinton Agar pH 7.4
Description: as §1, §4, §5

[16] = system: Escherichia coli; experiment: as above
Description: as §1, §4, §5

[17] = system: Enterococcus; experiment: as above
Description: as §1, §4, §5

[18] = system: Trichophyton tonsurans; experiment: In vitro antifungal activity, dilutions in Sabouraud's Dextrose Broth (Table IV); details: after 96 hours
Description: as §1
(§6) In vitro Antifungal Activity of 2-amioalkyl-3-phenylindoles
(§7) of the formula I against Dermetophytes and Aspergillus.
(§8) Dilutions in Sabouraud's Dextrose Broth.

[19] = system: Trichophyton megninii; experiment: as above; details: Trichophyton rubrum; after 96 hours
Description: as §1, §6, §7, §8

[20] = system: Trichophyton discoides; experiment: as above; details: after 96 hours
Description: as §1, §6, §7, §8

[21] = system: Aspergillus sp. No. 3; experiment: as above; details: after 96 hours
Description: as §1, §6, §7, §8

[22] = system: Epidermophyton floccosum; experiment: as above; details: after 96 hours
Description: as §1, §6, §7, §8

[23] = system: Trichophyton ascoides; experiment: as above; details: after 96 hours
Description: as §1, §6, §7, §8

[24] = system: Microsporum distortum; experiment: as above; details: after 96 hours
Description: as §1, §6, §7, §8

[25] = system: Trichophyton soudenense; experiment: as above; details: after 96 hours
Description: as §1, §6, §7, §8

[26] = system: Aspergillus niger 6275; experiment: as above; details: after 96 hours
Description: as §1, §6, §7, §8

[27] = system: Trichophyton mentagrophytes; experiment: as above; details: 96 h
Description: as §1, §6, §7, §8

[28] = system: Trichophyton schoenleinii; experiment: as above; details: 96 h
Description: as §1, §6, §7, §8

[29] = system: Tricoderm sp.; experiment: as above; details: after 96 hours
Description: as §1, §6, §7, §8

[30] = system: Trichophyton gallinae; experiment: as above; details: after 96 hours
Description: as §1, §6, §7, §8

[31] = system: Microsporum nanum; experiment: as above; details: Nannizzia nana; after 96 hours
Description: as §1, §6, §7, §8

[32] = system: Trichophyton ferrugineum; experiment: as above; details: Microsporum ferrugineum; after 96 hours
Description: as §1, §6, §7, §8

[33] = system: Trichophyton rubrum; experiment: as above; details: 96 h
Description: as §1, §6, §7, §8

[34] = system: Trychomonas vaginalis; experiment: In vitro Anti-Trichomonal activity (Table VII)
Description: as §1
In vitro Anti-Trichomonal Activity of some 2-aminoalkyl-3-
phenyl-indenes of formula II.

## NCc1[nH]c2ccc(Cl)cc2c1-c1c(F)cccc1F [B, 2-aminomethyl-5-chloro-3-(2,6-difluorophenyl)indole]
[1]; 48 hrs
  MIC: 7.5 µg/mL (≈ 25.6 µM)
[1]; 72 hrs
  MIC: 7.5 µg/mL (≈ 25.6 µM)
[2]; 48 hrs
  MIC: 3 µg/mL (≈ 10.2 µM)
[2]; 72 hrs
  MIC: 3 µg/mL (≈ 10.2 µM)
[3]; 48 hrs
  MIC: 3 µg/mL (≈ 10.2 µM)
[3]; 72 hrs
  MIC: 3 µg/mL (≈ 10.2 µM)
[4]; 48 hrs
  MIC: 7.5 µg/mL (≈ 25.6 µM)
[4]; 72 hrs
  MIC: 7.5 µg/mL (≈ 25.6 µM)
[5]; 48 hrs
  MIC: 3 µg/mL (≈ 10.2 µM)
[5]; 72 hrs
  MIC: 3 µg/mL (≈ 10.2 µM)
[6]; 48 hrs
  MIC: 7.5 µg/mL (≈ 25.6 µM)
[6]; 72 hrs
  MIC: 7.5 µg/mL (≈ 25.6 µM)
[7]; TYPHI, pH 7.4, B typhi, Mueller Hinton Agar pH 7.4
  MIC: 7.5 µg/mL (≈ 25.6 µM)
[7]; pH 7.4, C1 Oao, Mueller Hinton Agar pH 7.4
  MIC: 7.5 µg/mL (≈ 25.6 µM)
[7]; pH 7.4, C2 Cuban, Mueller Hinton Agar pH 7.4
  MIC: 7.5 µg/mL (≈ 25.6 µM)
[7]; pH 7.4, C2 Napc, Mueller Hinton Agar pH 7.4
  MIC: 7.5 µg/mL (≈ 25.6 µM)
[7]; pH 7.4, Salmonella ent. 1, Mueller Hinton Agar pH 7.4
  MIC: 7.5 µg/mL (≈ 25.6 µM)
[8]
  MIC: 17.5 µg/mL (≈ 59.8 µM)
[9]; pH 7.4, strain Hard
  MIC: 17.5 µg/mL (≈ 59.8 µM)
[9]; pH 7.4, strain Peras
  MIC: 37.5 µg/mL (≈ 128 µM)
[10]; pH 7.4, strain 130, Mueller Hinton Agar pH 7.4
  MIC: 17.5 µg/mL (≈ 59.8 µM)
[10]; pH 7.4, strain 138, Mueller Hinton Agar pH 7.4
  MIC: 17.5 µg/mL (≈ 59.8 µM)
[10]; pH 7.4, strain 762, Mueller Hinton Agar pH 7.4
  MIC: 17.5 µg/mL (≈ 59.8 µM)
[10]; pH 7.4, strain 8709, Mueller Hinton Agar pH 7.4
  MIC: 17.5 µg/mL (≈ 59.8 µM)
[10]; pH 7.4, strain Trav. 1, Mueller Hinton Agar pH 7.4
  MIC: 17.5 µg/mL (≈ 59.8 µM)
[11]; pH 7.4, strain 121, Mueller Hinton Agar pH 7.4
  MIC: 17.5 µg/mL (≈ 59.8 µM)
[11]; pH 7.4, strain 3020, Mueller Hinton Agar pH 7.4
  MIC: 7.5 µg/mL (≈ 25.6 µM)
[11]; pH 7.4, strain AD17, Mueller Hinton Agar pH 7.4
  MIC: 17.5 µg/mL (≈ 59.8 µM)
[11]; pH 7.4, strain AD22, Mueller Hinton Agar pH 7.4
  MIC: 7.5 µg/mL (≈ 25.6 µM)
[11]; pH 7.4, strain G3694, Mueller Hinton Agar pH 7.4
  MIC: 7.5 µg/mL (≈ 25.6 µM)
[12]; pH 7.4, strain 27, Mueller Hinton Agar pH 7.4
  MIC: 7.5 µg/mL (≈ 25.6 µM)
[12]; pH 7.4, strain C, Mueller Hinton Agar pH 7.4
  MIC: 17.5 µg/mL (≈ 59.8 µM)
[12]; pH 7.4, strain Cruz, Mueller Hinton Agar pH 7.4
  MIC: 3 µg/mL (≈ 10.2 µM)
[13]
  MIC: 17.5 µg/mL (≈ 59.8 µM)
[14]
  MIC: 17.5 µg/mL (≈ 59.8 µM)
[15]; 209P, pH 7.4, strain 209P
  MIC: 7.5 µg/mL (≈ 25.6 µM)
[15]; pH 7.4, strain 59N
  MIC: 7.5 µg/mL (≈ 25.6 µM)
[15]; pH 7.4, strain Gray
  MIC: 7.5 µg/mL (≈ 25.6 µM)
[15]; pH 7.4, strain Wood
  MIC: 7.5 µg/mL (≈ 25.6 µM)
[15]; pH 7.4, strain Zeigler
  MIC: 7.5 µg/mL (≈ 25.6 µM)
[16]; pH 7.4, strain 777, Mueller Hinton Agar pH 7.4
  MIC: 7.5 µg/mL (≈ 25.6 µM)
[16]; pH 7.4, strain 1574-1, Mueller Hinton Agar pH 7.4
  MIC: 7.5 µg/mL (≈ 25.6 µM)
[16]; pH 7.4, strain 4195, Mueller Hinton Agar pH 7.4
  MIC: 7.5 µg/mL (≈ 25.6 µM)
[16]; pH 7.4, strain 10536, Mueller Hinton Agar pH 7.4
  MIC: 7.5 µg/mL (≈ 25.6 µM)
[16]; pH 7.4, strain JR66, Mueller Hinton Agar pH 7.4
  MIC: 7.5 µg/mL (≈ 25.6 µM)
[17]; pH 7.4, strain 373, Mueller Hinton Agar pH 7.4
  MIC: 7.5 µg/mL (≈ 25.6 µM)
[17]; pH 7.4, strain 0928/72, Mueller Hinton Agar pH 7.4
  MIC: 17.5 µg/mL (≈ 59.8 µM)
[18]
  MIC: 200 µg/mL (≈ 683 µM)
[19]
  MIC: 7.5 µg/mL (≈ 25.6 µM)
[20]
  MIC: 17.5 µg/mL (≈ 59.8 µM)
[21]
  MIC: 37.5 µg/mL (≈ 128 µM)
[22]
  MIC: 17.5 µg/mL (≈ 59.8 µM)
[23]
  MIC: 17.5 µg/mL (≈ 59.8 µM)
[24]
  MIC: 17.5 µg/mL (≈ 59.8 µM)
[25]
  MIC: 17.5 µg/mL (≈ 59.8 µM)
[26]
  MIC: 37.5 µg/mL (≈ 128 µM)
[27]; strain A, after 96 hours
  MIC: 7.5 µg/mL (≈ 25.6 µM)
[27]; strain B, after 96 hours
  MIC: 7.5 µg/mL (≈ 25.6 µM)
[27]; strain C, after 96 hours
  MIC: 7.5 µg/mL (≈ 25.6 µM)
[27]; strain H377, after 96 hours
  MIC: 17.5 µg/mL (≈ 59.8 µM)
[27]; strain Young, after 96 hours
  MIC: 7.5 µg/mL (≈ 25.6 µM)
[28]; strain 2, after 96 hours
  MIC: 7.5 µg/mL (≈ 25.6 µM)
[28]; strain not given, after 96 hours
  MIC: 17.5 µg/mL (≈ 59.8 µM)
[29]
  MIC: 7.5 µg/mL (≈ 25.6 µM)
[30]
  MIC: 7.5 µg/mL (≈ 25.6 µM)
[31]
  MIC: 17.5 µg/mL (≈ 59.8 µM)
[32]
  MIC: 37.5 µg/mL (≈ 128 µM)
[33]; strain 3, after 96 hours
  MIC: 17.5 µg/mL (≈ 59.8 µM)
[33]; strain 360, after 96 hours
  MIC: 17.5 µg/mL (≈ 59.8 µM)
[33]; strain Blehl, after 96 hours
  MIC: 17.5 µg/mL (≈ 59.8 µM)
[33]; strain Haggerty, after 96 hours
  MIC: 17.5 µg/mL (≈ 59.8 µM)
[34]; 50% suppression, read-out: Minimal Level to Produce 50% Suppression
  IC50: 32 µg/mL (≈ 109 µM)
[34]; 90% suppression, read-out: Minimal Level to Produce 90% Suppression
  IC90: 75 µg/mL (≈ 256 µM)
